Reference: the supplement of paper PMC10307832

What was measured:
Assay in all cases: relative viability (nuclei count vs DMSO), 5 days (fraction); higher = more cells survive
[1] = compound: COc1cc(Nc2ncc3c(n2)-c2ccc(Cl)cc2C(c2c(F)cccc2OC)=NC3)ccc1C(=O)O [Alisertib] + COc1cc2c(Oc3ccc(NC(=O)C4(C(=O)Nc5ccc(F)cc5)CC4)cc3F)ccnc2cc1OCCCN1CCOCC1 [Foretinib] (partner 0.25 µM)
In short: (§1)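 Lung cancer cell lines in 1536-well plates were dosed by pin tool the day after seeding, either with one drug alone or with a fixed anchor-drug dose plus five library-drug doses (not always all listed) in √10 steps. After 5 days, cells were fixed and their nuclei stained in one step (final 0.05% Triton X-100, 1% formaldehyde, 1 ug/ml Hoechst), then counted on 4× images. Relative viability is the nuclei count in treated wells divided by that in vehicle wells. Values are medians of duplicate plates.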

[2] = compound: COc1cc(Nc2ncc3c(n2)-c2ccc(Cl)cc2C(c2c(F)cccc2OC)=NC3)ccc1C(=O)O [Alisertib] + Cc1cc(Nc2cc(N3CCN(C)CC3)nc(Sc3ccc(NC(=O)C4CC4)cc3)n2)n[nH]1 [Tozasertib] (partner 0.1 µM)
In short: as §1

[3] = compound: COc1cc(Nc2ncc3c(n2)-c2ccc(Cl)cc2C(c2c(F)cccc2OC)=NC3)ccc1C(=O)O [Alisertib] + CCNC(=O)c1noc(-c2cc(C(C)C)c(O)cc2O)c1-c1ccc(CN2CCOCC2)cc1 [Luminespib] (partner 0.01 µM)
In short: as §1

[4] = compound: COc1cc(Nc2ncc3c(n2)-c2ccc(Cl)cc2C(c2c(F)cccc2OC)=NC3)ccc1C(=O)O [Alisertib] + NC(=O)Nc1cc(-c2cccc(F)c2)sc1C(=O)N[C@H]1CCCNC1 [AZD7762] (partner 0.2 µM)
In short: as §1

Cell Line | relative viability ([1]; first compound 0.005 µM) | relative viability ([1]; first compound 0.01581 µM) | relative viability ([1]; first compound 0.05 µM) | relative viability ([1]; first compound 0.1581 µM) | relative viability ([1]; first compound 0.5 µM) | relative viability ([2]; first compound 0.005 µM) | relative viability ([2]; first compound 0.01581 µM) | relative viability ([2]; first compound 0.05 µM) | relative viability ([2]; first compound 0.1581 µM) | relative viability ([2]; first compound 0.5 µM) | relative viability ([3]; first compound 0.005 µM) | relative viability ([3]; first compound 0.01581 µM) | relative viability ([3]; first compound 0.05 µM) | relative viability ([3]; first compound 0.1581 µM) | relative viability ([3]; first compound 0.5 µM) | relative viability ([4]; first compound 0.005 µM) | relative viability ([4]; first compound 0.01581 µM) | relative viability ([4]; first compound 0.05 µM) | relative viability ([4]; first compound 0.1581 µM) | relative viability ([4]; first compound 0.5 µM)
201T | 1.14 | 0.997 | 1.02 | 0.453 | 0.271 | 0.899 | 0.681 | 0.579 | 0.407 | 0.354 | 1.16 | 0.971 | 0.816 | 0.576 | 0.362 | 0.618 | 0.753 | 0.675 | 0.46 | 0.277
A-427 | 0.877 | 0.777 | 0.197 | 0.182 | 0.178 | 0.211 | 0.166 | 0.174 | 0.186 | 0.135 | 0.916 | 0.576 | 0.243 | 0.141 | 0.209 | 0.602 | 0.362 | 0.206 | 0.196 | 0.212
ABC-1 | 1.08 | 1.06 | 0.58 | 0.344 | 0.22 | 0.178 | 0.233 | 0.256 | 0.203 | 0.196 | – | – | 0.491 | 0.366 | 0.136 | – | 0.594 | 0.648 | 0.307 | 0.272
BEN | 0.486 | 0.57 | 0.277 | 0.213 | 0.21 | 0.531 | 0.457 | 0.375 | 0.456 | 0.4 | 0.309 | 0.161 | 0.133 | 0.115 | 0.141 | 0.57 | 0.592 | 0.359 | 0.335 | 0.389
CAL-12T | 0.995 | 0.821 | 0.231 | 0.231 | 0.212 | 0.333 | 0.28 | 0.202 | 0.199 | 0.178 | 0.412 | 0.205 | 0.1 | 0.169 | 0.188 | 0.528 | 0.314 | 0.183 | 0.224 | 0.201
ChaGo-K-1 | 0.922 | 0.845 | 0.237 | 0.21 | 0.192 | 0.228 | 0.213 | 0.194 | 0.207 | 0.198 | 0.565 | 0.451 | 0.258 | 0.169 | 0.217 | 0.827 | 0.755 | 0.633 | 0.213 | 0.166
EKVX | 0.954 | 0.812 | 0.194 | 0.195 | 0.202 | 0.379 | 0.305 | 0.205 | 0.141 | 0.151 | 0.711 | 0.74 | 0.356 | 0.168 | 0.169 | 0.554 | 0.46 | 0.278 | 0.132 | 0.172
EMC-BAC-2 | 0.922 | 0.838 | 0.318 | 0.252 | 0.203 | 0.243 | 0.283 | 0.214 | 0.224 | 0.173 | 1.09 | 0.967 | 0.395 | 0.292 | 0.23 | 0.834 | 0.569 | 0.591 | 0.313 | 0.28
EPLC-272H | 0.733 | 0.554 | 0.152 | 0.0794 | 0.133 | 0.238 | 0.176 | 0.144 | 0.192 | 0.16 | 0.275 | 0.166 | 0.122 | 0.112 | 0.134 | 0.286 | 0.308 | 0.196 | 0.12 | 0.106
H3255 | 0.823 | 0.821 | 0.573 | 0.219 | 0.177 | 0.737 | 0.503 | 0.296 | 0.137 | 0.227 | 0.753 | 0.841 | 0.522 | 0.259 | 0.212 | 0.712 | 0.952 | 0.613 | 0.274 | 0.234
HARA | 0.864 | 0.663 | 0.316 | 0.148 | 0.101 | 0.103 | 0.0888 | 0.0929 | 0.104 | 0.0887 | 0.682 | 0.428 | 0.209 | 0.0919 | 0.0942 | 0.28 | 0.567 | 0.339 | 0.217 | 0.0911
HCC-15 | 0.999 | 0.627 | 0.184 | 0.139 | 0.129 | 0.352 | 0.154 | 0.163 | 0.144 | 0.0961 | 0.327 | 0.371 | 0.167 | 0.108 | 0.128 | 0.994 | 1.16 | 1.12 | 0.355 | 0.133
HCC-827 | 1.05 | 0.726 | 0.333 | 0.276 | 0.237 | 0.378 | 0.31 | 0.258 | 0.273 | 0.278 | 0.48 | 0.598 | 0.204 | 0.209 | 0.234 | 0.18 | 0.247 | 0.206 | 0.123 | 0.15
HOP-62 | 1.08 | 0.876 | 0.285 | 0.256 | 0.205 | 0.339 | 0.275 | 0.204 | 0.24 | 0.203 | 0.845 | 0.808 | 0.288 | 0.259 | 0.153 | 0.447 | 0.412 | 0.268 | 0.158 | 0.0945
NCI-H522 | – | – | – | – | – | 0.543 | 0.565 | 0.489 | 0.517 | 0.439 | 1.2 | 1 | 0.493 | 0.331 | 0.426 | 0.818 | 0.843 | 0.785 | 0.406 | 0.411
